Data on 5 molecules can be found in ChEMBL document CHEMBL1129857, “Synthesis, molecular modeling, and biology of the 1-benzyl derivative of APDC-an apparent mGluR6 selective ligand” (Bioorg Med Chem Lett, 1997).

Holding throughout (format): functional
Assay [1] has as its target T1, Metabotropic glutamate receptor 2 (Rattus norvegicus, UniProt P31421). Description: Tested for the agonistic activity against Metabotropic glutamate receptor 2.
For assay [2], the target named is T2, Metabotropic glutamate receptor 1 (Rattus norvegicus, UniProt P23385). Briefly: Tested for the agonistic activity against Metabotropic glutamate receptor 1.
T2 sequence (P23385 whole entry): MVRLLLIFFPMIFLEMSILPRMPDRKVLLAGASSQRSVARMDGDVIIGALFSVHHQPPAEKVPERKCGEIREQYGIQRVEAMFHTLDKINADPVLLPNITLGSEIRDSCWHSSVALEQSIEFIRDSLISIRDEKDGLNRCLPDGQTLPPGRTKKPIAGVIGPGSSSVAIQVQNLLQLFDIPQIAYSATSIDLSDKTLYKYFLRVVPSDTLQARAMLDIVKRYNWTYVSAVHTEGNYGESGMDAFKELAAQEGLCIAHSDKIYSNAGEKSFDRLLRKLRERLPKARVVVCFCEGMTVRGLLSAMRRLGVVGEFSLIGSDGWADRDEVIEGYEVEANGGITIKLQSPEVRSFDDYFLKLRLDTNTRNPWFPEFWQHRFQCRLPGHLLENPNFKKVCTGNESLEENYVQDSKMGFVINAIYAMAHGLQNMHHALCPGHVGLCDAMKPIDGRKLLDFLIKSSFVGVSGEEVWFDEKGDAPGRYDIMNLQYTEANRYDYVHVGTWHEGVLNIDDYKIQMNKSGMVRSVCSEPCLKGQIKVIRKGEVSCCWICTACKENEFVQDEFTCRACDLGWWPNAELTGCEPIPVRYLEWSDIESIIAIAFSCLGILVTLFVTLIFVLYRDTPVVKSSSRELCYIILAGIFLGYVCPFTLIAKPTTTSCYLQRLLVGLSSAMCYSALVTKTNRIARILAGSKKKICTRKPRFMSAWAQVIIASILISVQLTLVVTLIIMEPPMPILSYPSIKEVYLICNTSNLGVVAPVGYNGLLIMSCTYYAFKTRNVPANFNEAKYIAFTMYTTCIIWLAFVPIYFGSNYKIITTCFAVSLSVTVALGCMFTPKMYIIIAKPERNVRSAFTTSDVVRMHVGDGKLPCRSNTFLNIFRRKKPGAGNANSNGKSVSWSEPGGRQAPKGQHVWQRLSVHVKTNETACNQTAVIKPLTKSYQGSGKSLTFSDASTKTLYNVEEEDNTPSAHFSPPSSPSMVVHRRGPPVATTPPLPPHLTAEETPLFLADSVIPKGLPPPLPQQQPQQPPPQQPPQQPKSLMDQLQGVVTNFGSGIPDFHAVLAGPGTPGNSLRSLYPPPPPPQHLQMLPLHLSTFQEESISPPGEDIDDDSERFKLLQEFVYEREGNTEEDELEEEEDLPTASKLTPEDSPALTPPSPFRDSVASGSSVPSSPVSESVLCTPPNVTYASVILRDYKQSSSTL
Assay [3] deals with Metabotropic glutamate receptor 6 (Rattus norvegicus, UniProt P35349). Description: Tested for the agonistic activity against Metabotropic glutamate receptor 6.
Sequence of Metabotropic glutamate receptor 6 (P35349 whole entry): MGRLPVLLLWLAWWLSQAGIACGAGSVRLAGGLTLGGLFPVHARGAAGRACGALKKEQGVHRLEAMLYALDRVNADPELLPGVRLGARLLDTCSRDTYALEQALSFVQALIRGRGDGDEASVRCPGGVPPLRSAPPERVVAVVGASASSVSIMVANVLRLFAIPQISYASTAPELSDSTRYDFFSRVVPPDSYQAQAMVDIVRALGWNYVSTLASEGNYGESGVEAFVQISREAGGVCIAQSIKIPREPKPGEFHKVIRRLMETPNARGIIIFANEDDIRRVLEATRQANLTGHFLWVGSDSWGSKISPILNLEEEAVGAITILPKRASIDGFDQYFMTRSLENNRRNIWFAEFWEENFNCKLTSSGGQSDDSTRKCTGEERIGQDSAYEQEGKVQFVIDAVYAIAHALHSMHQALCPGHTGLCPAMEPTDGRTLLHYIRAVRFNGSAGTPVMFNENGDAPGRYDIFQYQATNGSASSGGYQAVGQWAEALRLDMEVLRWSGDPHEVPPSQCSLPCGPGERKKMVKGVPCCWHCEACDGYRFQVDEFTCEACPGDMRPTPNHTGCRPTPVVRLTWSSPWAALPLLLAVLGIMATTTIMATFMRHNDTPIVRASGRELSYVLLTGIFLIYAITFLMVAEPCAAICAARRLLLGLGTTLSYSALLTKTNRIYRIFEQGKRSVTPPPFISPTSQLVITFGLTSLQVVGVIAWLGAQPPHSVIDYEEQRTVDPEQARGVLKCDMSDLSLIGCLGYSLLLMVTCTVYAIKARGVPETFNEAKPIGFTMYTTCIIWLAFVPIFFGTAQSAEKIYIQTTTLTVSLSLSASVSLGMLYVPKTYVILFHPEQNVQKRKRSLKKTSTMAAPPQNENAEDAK
The target in assay [4] is T3, Metabotropic glutamate receptor 5 (Rattus norvegicus, UniProt P31424). Briefly: Tested for the agonistic activity against Metabotropic glutamate receptor 5.
T3 sequence (P31424 whole entry): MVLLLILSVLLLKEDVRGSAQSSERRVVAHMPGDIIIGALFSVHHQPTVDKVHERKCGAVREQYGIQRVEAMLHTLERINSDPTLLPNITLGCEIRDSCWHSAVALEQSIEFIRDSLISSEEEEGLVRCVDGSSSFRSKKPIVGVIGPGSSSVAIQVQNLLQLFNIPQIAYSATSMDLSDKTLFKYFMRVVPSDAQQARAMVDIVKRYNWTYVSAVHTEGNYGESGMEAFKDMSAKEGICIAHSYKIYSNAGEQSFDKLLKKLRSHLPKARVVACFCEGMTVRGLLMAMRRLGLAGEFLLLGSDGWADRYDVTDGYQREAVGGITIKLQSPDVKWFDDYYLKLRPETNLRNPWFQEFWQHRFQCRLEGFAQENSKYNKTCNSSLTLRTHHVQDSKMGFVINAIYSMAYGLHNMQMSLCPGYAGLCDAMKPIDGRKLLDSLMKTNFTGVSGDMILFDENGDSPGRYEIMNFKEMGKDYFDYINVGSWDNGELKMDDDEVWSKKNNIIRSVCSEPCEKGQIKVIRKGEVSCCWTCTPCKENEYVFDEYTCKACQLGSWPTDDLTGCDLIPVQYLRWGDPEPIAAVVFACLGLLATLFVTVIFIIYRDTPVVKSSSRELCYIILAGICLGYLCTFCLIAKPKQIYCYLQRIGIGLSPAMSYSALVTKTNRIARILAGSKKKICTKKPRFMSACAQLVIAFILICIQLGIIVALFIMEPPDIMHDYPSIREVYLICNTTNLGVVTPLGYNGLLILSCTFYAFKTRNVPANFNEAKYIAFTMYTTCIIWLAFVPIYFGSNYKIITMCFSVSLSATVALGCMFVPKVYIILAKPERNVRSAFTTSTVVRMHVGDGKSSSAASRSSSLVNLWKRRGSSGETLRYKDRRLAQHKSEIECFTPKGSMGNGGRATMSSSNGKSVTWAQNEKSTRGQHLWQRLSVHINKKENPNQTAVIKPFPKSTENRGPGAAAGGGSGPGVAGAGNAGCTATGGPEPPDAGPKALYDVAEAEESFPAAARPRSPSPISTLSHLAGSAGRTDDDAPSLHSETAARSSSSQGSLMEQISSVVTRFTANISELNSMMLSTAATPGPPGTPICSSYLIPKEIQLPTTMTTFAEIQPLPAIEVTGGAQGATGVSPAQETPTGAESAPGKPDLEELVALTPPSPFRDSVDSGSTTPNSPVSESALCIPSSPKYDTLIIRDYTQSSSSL
Assay [5] deals with T3, Metabotropic glutamate receptor 5. Briefly: Tested for the agonistic activity against Metabotropic glutamate receptor 5; Not active.
The target in assay [6] is T2, Metabotropic glutamate receptor 1. Briefly: Tested for the agonistic activity against Metabotropic glutamate receptor 1; Not active.
In assay [7] the target is T1, Metabotropic glutamate receptor 2. Description: Tested for the agonistic activity against Metabotropic glutamate receptor 2; Not active.

Each structure is given as a SMILES string.

T1 sequence (P31421 whole entry): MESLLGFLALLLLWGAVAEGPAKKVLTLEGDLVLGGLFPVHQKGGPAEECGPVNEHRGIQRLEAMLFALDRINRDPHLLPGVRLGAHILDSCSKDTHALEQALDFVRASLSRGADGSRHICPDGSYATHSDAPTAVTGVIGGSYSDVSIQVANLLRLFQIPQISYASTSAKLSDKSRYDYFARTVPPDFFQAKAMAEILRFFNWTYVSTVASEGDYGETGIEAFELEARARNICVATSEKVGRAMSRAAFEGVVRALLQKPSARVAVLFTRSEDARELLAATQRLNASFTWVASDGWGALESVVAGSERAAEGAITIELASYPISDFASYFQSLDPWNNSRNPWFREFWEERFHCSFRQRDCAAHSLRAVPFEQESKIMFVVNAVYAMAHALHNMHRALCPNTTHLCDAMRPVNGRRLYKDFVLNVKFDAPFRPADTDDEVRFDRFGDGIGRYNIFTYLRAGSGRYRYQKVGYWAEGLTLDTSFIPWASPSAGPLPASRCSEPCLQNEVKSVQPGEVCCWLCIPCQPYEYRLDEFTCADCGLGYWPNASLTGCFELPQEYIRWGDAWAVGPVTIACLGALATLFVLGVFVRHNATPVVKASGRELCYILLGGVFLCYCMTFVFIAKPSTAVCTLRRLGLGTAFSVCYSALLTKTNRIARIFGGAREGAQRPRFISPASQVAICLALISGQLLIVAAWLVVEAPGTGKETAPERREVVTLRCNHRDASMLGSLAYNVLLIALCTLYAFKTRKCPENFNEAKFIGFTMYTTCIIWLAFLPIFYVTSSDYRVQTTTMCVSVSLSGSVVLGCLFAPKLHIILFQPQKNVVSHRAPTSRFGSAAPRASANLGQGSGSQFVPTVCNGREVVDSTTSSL

Usually EC50 stands for the concentration giving half of the maximal effect. A lower EC50 goes with an effect from little substance. On to `N[C@@]1(C(=O)O)CN[C@@H](C(=O)O)C1`, for which the EC50 in assay [1] is 0.3 µM; in assay [2], 100 µM; in assay [3], 110 µM; in assay [4], 200 µM.
In the case of `N[C@@]1(C(=O)O)CC[C@@H](C(=O)O)C1`, the 50% effective concentration (EC50) in assay [3] is 60 µM; in assay [4], 15 µM.
As to `O=C(N[C@@]1(C(=O)O)CN[C@@H](C(=O)O)C1)c1ccccc1`, the concentration for a half-maximal effect (EC50) result is “Not Active” in assay [5], “Not Active” in assay [6], 1000 µM in assay [3] and “Not Active” in assay [7].
`NC(CCP(=O)(O)O)C(=O)O` (stereo not given) returned an EC50 in assay [3] of 1 µM.
For orientation: IC50 means the concentration that inhibits the measured activity by half. Lower therefore signals inhibition by little substance. Take `N[C@]1(C(=O)O)C[C@H](C(=O)O)N(Cc2ccccc2)C1`: the IC50 in assay [1] was found to be 200 µM; in assay [4], 600 µM. Moreover, the figures for the EC50 in assay [2] and in assay [3] were > 1000 µM and 20 µM, respectively.
